Laboratory results reported in patent publication US4499099A, “Nortropane and granatane type compounds useful in treating psychosis” (Beecham Group p.l.c., priority 1981, dated 1985).
Counter-ions that a name gives are not always drawn.

Tested on: post-synaptic Dopamine (D.A.) receptors
Assay: Inhibition of Apomorphine Induced Climbing in the Mouse
Assay type: in vivo
Conditions: male CD1 mice, apomorphine 1 mg/kg s.c., test compound administered subcutaneously 30 minutes prior to apomorphine (b213 says pre-treated orally), climbing scored at 10 and 20 minutes, read-out: ED50 (dose that produced a 50% inhibition of apomorphine-induced climbing)
Protocol: The results in the following table are on illustration of the anti-psychotic activity of the present compounds as shown by Inhibition of Apomorphine Induced Climbing in the Mouse, a standard test.
The test is based on that described by Protais, P., Constantin, J. and Schwartz J. C. (1976), Psychopharmacology, 50, 1-6.
When mice are given a dose of 1 mg/kg apomorphine and then placed in an enclosed environment, such as an inverted wire cage, they are seen to climb around the walls. This behavioural phenomenon is thought to be a consequence of the stimulation of post-synaptic Dopamine (D.A.) receptors in the nucleus accumbens. Inhibition of apomorphine induced climbing is therefore indicative of post-synaptic D.A. receptor blockade in the accumbens.
Groups of 10 male CD1 mice, weighing 25-30 g were pre-treated orally with either graded doses of the test compound or vehicle, at appropriate time intervals before the subcutaneous administration of a sub-maximal dose of apomorphine (1 mg/kg). Immediately after the apomorphine injection the mice were placed in wire `climbing cages` and each animal was scored for climbing behaviour at 10 and 20 minutes post apomorphine as follows:
Four paws on cage floor=0
The test compound was administered subcutaneously 30 minutes prior to administration of apomorphine.
The total score was calculated for each group of mice and expressed as a percentage inhibition of climbing. [formula]
ED50's and fiducial limits were calculated according to the method of Litchfield and Wilcoxon, the ED50 being the dose that produced a 50% inhibition of apomorphine--induced climbing.

SMILES	ED50
COc1cc(N)c(SC)cc1C(=O)N[C@@H]1C[C@H]2CCC[C@@H](C1)N2Cc1ccc(F)cc1 [Example 2, 4-Amino-2-methoxy-5-methylthio-[N-(9-(4^1-fluorobenzyl)-9-azabicyclo(3.3.1)non-3β-yl)]benzamide]	0.32 mg/kg
COc1cc(N)c(SC)cc1C(=O)N[C@@H]1C[C@H]2CC[C@@H](C1)N2Cc1ccccc1 [Example 1, 4-Amino-2-methoxy-5-methylthio-N-[3-β-(8-benzyl-8-azabicyclo(3,2,1)octyl)]benzamide]	0.66 mg/kg
COc1cc(SC)cc(C(=O)N[C@@H]2C[C@H]3CC[C@@H](C2)N3Cc2ccccc2)c1OC [Example 3, 2,3-Dimethoxy-5-methylthio-N[3β(8-benzyl-8-azabicyclo[3.2.1]octyl)]benzamide hydrochloride]	0.44 mg/kg
COc1cc(SC)cc(C(=O)N[C@@H]2C[C@H]3CCC[C@@H](C2)N3Cc2ccc(F)cc2)c1OC [Example 4, 2,3-dimethoxy-5-methylthio-[N-(9-(4^1-fluorobenzyl)-9-azabicyclo(3.3.1)non-3β-yl)]benzamide]	0.56 mg/kg
